Test results reported in the supplement of paper PMC10331698.
± gives the standard deviation of the averaged measurements.

Assays:
Assay in all cases: level (log10 ratio to DMSO vehicle control); higher = higher biomarker level / cell amount than vehicle control
[1] = compound: O=C(O)C(F)(OC(F)(F)C(F)(F)C(F)(F)F)C(F)(F)F [Ammonium perfluoro-2-methyl-3-oxahexanoate] (in Water)
Protocol: (§1)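 BioMAP Diversity Plus panel of 12 human primary cell co-culture systems (3C, 4H, LPS, SAg, BT, BF4T, BE3C, CASM3C, HDF3CGF, KF3CT, MyoF, Mphg). Compounds were added 1 h before stimulation and left for 24 h (MyoF 48 h; BT 72 h for soluble read-outs or 6 d for IgG). Biomarkers were read by ELISA, cytotoxicity by SRB, PBMC viability and proliferation by Alamar Blue. Each well value was divided by the mean of 8 DMSO control wells on the same plate and log10 transformed; duplicate blinded samples were tested at 4 concentrations.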

[2] = compound: O=S(=O)(O)CCC(F)(F)C(F)(F)C(F)(F)C(F)(F)C(F)(F)C(F)(F)C(F)(F)C(F)(F)F [8:2 Fluorotelomer sulfonic acid] (in DMSO)
Protocol: as §1

[3] = compound: O=S(=O)(O)C(F)(F)C(F)(F)OC(F)(F)C(F)(F)F [Perfluoro(2-ethoxyethane)sulfonic acid] (in DMSO)
Protocol: as §1

[4] = compound: CCOC(=O)CC(=O)C(F)(F)C(F)(F)F [Ethyl pentafluoropropionyl acetate] (in DMSO)
Protocol: as §1

[5] = compound: O=C(O)CCC(F)(C(F)(F)F)C(F)(F)F [4,4-bis(Trifluoromethyl)-4-fluoropropanoic acid] (in DMSO)
Protocol: as §1

[6] = compound: O=C(O)C(F)(F)C(F)(F)C(F)(F)OC(F)(F)F [Perfluoro(4-methoxybutanoic) acid] (in DMSO)
Protocol: as §1

Test System	level (log10) ([1]; 6700 nM)	level (log10) ([1]; 20000 nM)	level (log10) ([1]; 60000 nM)	level (log10) ([2]; 6700 nM)	level (log10) ([2]; 20000 nM)	level (log10) ([2]; 60000 nM)	level (log10) ([3]; 6700 nM)	level (log10) ([3]; 20000 nM)	level (log10) ([3]; 60000 nM)	level (log10) ([4]; 6700 nM)	level (log10) ([4]; 20000 nM)	level (log10) ([4]; 60000 nM)	level (log10) ([5]; 6700 nM)	level (log10) ([5]; 20000 nM)	level (log10) ([5]; 60000 nM)	level (log10) ([6]; 6700 nM)	level (log10) ([6]; 20000 nM)	level (log10) ([6]; 60000 nM)
HDF3CGF:CXCL9/MIG	-0.011 ± 0.028	-0.02 ± 0.014	-0.016 ± 0.064	-0.048 ± 0.034	-0.0575 ± 0.04	0.061 ± 0.034	0.004 ± 0.0057	0.002 ± 0.0042	-0.0055 ± 0.005	0.001 ± 0.0042	-0.013 ± 0.0085	-0.0185 ± 0.005	-0.0105 ± 0.039	-0.0215 ± 0.056	-0.0305 ± 0.054	-0.0085 ± 0.0035	0.0025 ± 0.0064	-0.005 ± 0.037
HDF3CGF:CXCL10/IP-10	0.002 ± 0.013	-0.0085 ± 0.00071	-0.0025 ± 0.012	-0.014 ± 0.0014	-0.0315 ± 0.0092	-0.06 ± 0.016	0.0105 ± 0.033	-0.0145 ± 0.05	-0.0105 ± 0.056	-0.0125 ± 0.015	-0.0105 ± 0.022	-0.046 ± 0.0085	-0.0175 ± 0.084	-0.0415 ± 0.088	-0.0395 ± 0.035	0.0145 ± 0.016	-0.004 ± 0.0042	-0.004 ± 0.0099
HDF3CGF:CXCL11/I-TAC	0.002 ± 0.0057	-0.0045 ± 0.019	0.002 ± 0.0099	-0.053 ± 0.027	-0.0285 ± 0.03	-0.0865 ± 0.067	0.0165 ± 0.022	0.0055 ± 0.021	-0.0365 ± 0.063	-0.0175 ± 0.029	-0.026 ± 0.037	-0.0425 ± 0.021	-0.035 ± 0.079	-0.0465 ± 0.074	-0.0745 ± 0.12	-0.0035 ± 0.005	0.0045 ± 0.0078	-0.0075 ± 0.0035
HDF3CGF:Collagen I	-0.029 ± 0.031	0.0015 ± 0.005	-0.0095 ± 0.0092	0.007 ± 0.038	0.0195 ± 0.049	-0.0455 ± 0.17	-0.046 ± 0.024	-0.037 ± 0.031	0.017 ± 0.055	-0.0205 ± 0.021	-0.003 ± 0.051	-0.0355 ± 0.0092	-0.0105 ± 0.025	-0.0025 ± 0.028	0.0195 ± 0.026	-0.0125 ± 0.015	0.0115 ± 0.049	0.033 ± 0.061
HDF3CGF:Collagen III	-0.0055 ± 0.0064	-0.015 ± 0.041	-0.0705 ± 0.028	0.05 ± 0.014	0.0975 ± 0.0092	0.0145 ± 0.12	-0.062 ± 0.12	-0.08 ± 0.085	-0.025 ± 0.16	-0.02 ± 0.047	-0.0505 ± 0.023	-0.0895 ± 0.015	-0.005 ± 0.04	-0.0495 ± 0.11	-0.0455 ± 0.04	0.0075 ± 0.033	0 ± 0.0099	-0.007 ± 0.021
HDF3CGF:EGFR	-0.017 ± 0.014	0.0145 ± 0.026	0.0535 ± 0.005	-0.011 ± 0.033	-0.0455 ± 0.03	-0.101 ± 0.026	-0.035 ± 0.05	-0.017 ± 0.042	0.0315 ± 0.07	-0.014 ± 0.0057	-0.018 ± 0.017	0.0125 ± 0.037	-0.05 ± 0.028	-0.0445 ± 0.04	-0.013 ± 0.033	-0.002 ± 0.072	0.02 ± 0.055	0.0015 ± 0.053
HDF3CGF:M-CSF	-0.0345 ± 0.00071	-0.0245 ± 0.013	-0.0595 ± 0.035	-0.0035 ± 0.056	-0.014 ± 0.038	-0.0685 ± 0.04	0.004 ± 0.011	-0.0075 ± 0.0092	-0.009 ± 0.016	-0.022 ± 0.017	-0.034 ± 0.037	-0.0135 ± 0.094	-0.0205 ± 0.081	-0.0565 ± 0.13	-0.0735 ± 0.15	-0.0135 ± 0.0035	-0.0075 ± 0.005	0.0115 ± 0.039
HDF3CGF:MMP-1	0.0035 ± 0.016	0.011	0.008 ± 0.0085	0.0205 ± 0.012	-0.017 ± 0.028	-0.0835 ± 0.036	-0.004 ± 0.0071	-0.0135 ± 0.029	-0.0235 ± 0.053	0.01 ± 0.028	0.022 ± 0.0071	0.029 ± 0.034	0.0015 ± 0.015	-0.0075 ± 0.029	-0.0145 ± 0.054	-0.0015 ± 0.015	-0.015 ± 0.0028	-0.0235 ± 0.0021
HDF3CGF:PAI-I	-0.0825 ± 0.052	-0.0995 ± 0.013	-0.051 ± 0.054	0.018 ± 0.034	-0.002 ± 0.021	0.0015 ± 0.0078	0.025 ± 0.0014	-0.003 ± 0.0071	-0.021 ± 0.013	-0.01 ± 0.025	0.004 ± 0.024	0.031 ± 0.062	0.0145 ± 0.011	-0.0095 ± 0.00071	-0.014 ± 0.024	-0.009 ± 0.0042	-0.0135 ± 0.0078	-0.001 ± 0.014
HDF3CGF:Proliferation 72hr	0.0575 ± 0.057	0.0635 ± 0.066	-0.0255 ± 0.056	0.0275 ± 0.044	0.0785 ± 0.06	0.107 ± 0.0014	-0.0225 ± 0.021	0.004 ± 0.0042	-0.067 ± 0.03	-0.019 ± 0.073	-0.017 ± 0.092	0.036 ± 0.017	-0.0275 ± 0.035	0.0025 ± 0.028	0.037 ± 0.0014	-0.003 ± 0.047	0.0295 ± 0.0021	-0.003 ± 0.031
HDF3CGF:SRB	-0.033 ± 0.02	-0.0325 ± 0.0021	-0.0175 ± 0.011	-0.044 ± 0.064	-0.017 ± 0.1	0.168 ± 0.037	-0.02 ± 0.0085	-0.017 ± 0.013	0.0085 ± 0.1	0.007 ± 0.027	-0.0005 ± 0.032	0.0025 ± 0.021	-0.0385 ± 0.07	-0.0245 ± 0.042	0.045 ± 0.041	0.006 ± 0.0071	0.011 ± 0.047	0.0125 ± 0.04
HDF3CGF:TIMP-1	0.025 ± 0.0028	0.014 ± 0.024	-0.0135 ± 0.0064	0.0375 ± 0.0064	0.0435 ± 0.037	-0.0365 ± 0.077	0.0415 ± 0.067	0.048 ± 0.04	0.0955 ± 0.071	-0.0085 ± 0.037	-0.007 ± 0.0071	-0.0305 ± 0.012	-0.022 ± 0.041	-0.021 ± 0.044	-0.036 ± 0.092	-0.0005 ± 0.035	0.0105 ± 0.067	0.0195 ± 0.042
HDF3CGF:TIMP-2	0.0405 ± 0.07	0.0435 ± 0.013	-0.0185 ± 0.079	-0.003 ± 0.016	-0.023 ± 0.016	-0.0475 ± 0.022	-0.011 ± 0.0099	-0.0305 ± 0.015	0.02 ± 0.059	-0.05 ± 0.044	-0.012 ± 0.024	-0.069 ± 0.011	-0.042 ± 0.052	-0.041 ± 0.045	-0.0265 ± 0.013	0.019 ± 0.025	0.029 ± 0.055	0.005 ± 0.057
KF3CT:CCL2/MCP-1	0.086 ± 0.0057	0.088 ± 0.023	0.0775 ± 0.018	-0.0135 ± 0.005	-0.0585 ± 0.029	-0.0475 ± 0.011	-0.0025 ± 0.013	-0.002 ± 0.016	0.0115 ± 0.032	-0.0355 ± 0.0064	-0.045 ± 0.035	0.001 ± 0.071	-0.011 ± 0.0057	-0.0145 ± 0.03	0.0015 ± 0.0092	-0.006 ± 0.011	0.0105 ± 0.0021	0.0375 ± 0.07
KF3CT:CD54/ICAM-1	0.022 ± 0.0099	0.029 ± 0.0071	0.017 ± 0.0057	-0.026 ± 0.02	-0.0495 ± 0.018	-0.0515 ± 0.005	-0.002 ± 0.0099	-0.0275 ± 0.0064	-0.0165 ± 0.00071	-0.003 ± 0.024	0.006 ± 0.014	0.0075 ± 0.03	0.0055 ± 0.0078	-0.0085 ± 0.0092	0.01 ± 0.0085	-0.005 ± 0.024	-0.017	-0.002 ± 0.013
